# Measurements: patent US4775685A, “2,4-diphenyl-1,3-dioxanes” (Imperial Chemical Industries PLC, priority 1985, dated 1988)
# Assays:
# [1] = molecular target: T1, TXA2 (Oryctolagus cuniculus, UniProt Q6WQI8); experiment: Test (a): rabbit aortal strip model, TXA2 antagonism; settings: (+0.05) for (i)-(iii)
# T1 construct: agonist TXA2 (from rabbit platelet-rich plasma) or U46619
# T1 sequence (Q6WQI8 1-233): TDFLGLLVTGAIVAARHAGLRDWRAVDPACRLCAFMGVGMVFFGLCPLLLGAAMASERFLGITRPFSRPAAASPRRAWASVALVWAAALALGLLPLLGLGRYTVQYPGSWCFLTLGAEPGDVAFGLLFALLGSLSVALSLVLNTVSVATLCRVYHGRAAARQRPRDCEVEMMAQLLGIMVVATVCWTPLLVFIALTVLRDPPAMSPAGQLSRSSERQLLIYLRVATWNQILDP
# Description: As stated earlier, the compounds of formula I are antagonists of one or more of the actions of TXA2, for example certain of its actions on blood platelets, the vasculature and/or the lung.
# (a) The rabbit aortal strip model devised by Piper and Vane (Nature, 1969, 223, 29-35) using as agonist a freshly prepared sample of TXA2, generated by addition of arachidonic acid (25 μg) to citrated, platelet rich rabbit plasma (250 μl ) and allowing the mixture to aggregate fully over 90 seconds before use; alternatively the TXA2 mimetic agent known as U46619 (described by R. L. Jones et alia in "Chemistry, Biochemistry and Pharmacological Activity of Prostanoids" edited by S. M. Roberts and F. Scheinmann, at page 211; Pergamon Press, 1979) may be used as the agonist; and […]
# [2] = molecular target: T2, U46619 stimulated platelet aggregation (Homo sapiens, UniProt P21731); experiment: Test (b): blood platelet aggregation test (U46619, human citrated platelet-rich plasma); assay type: cell-based
# T2 construct: aggregating human, citrated, platelet-rich plasma by addition of the TXA2 mimetic agent U46619; endogenous in cells; host or cells: human platelets in citrated platelet-rich plasma
# T2 sequence (P21731 1-343): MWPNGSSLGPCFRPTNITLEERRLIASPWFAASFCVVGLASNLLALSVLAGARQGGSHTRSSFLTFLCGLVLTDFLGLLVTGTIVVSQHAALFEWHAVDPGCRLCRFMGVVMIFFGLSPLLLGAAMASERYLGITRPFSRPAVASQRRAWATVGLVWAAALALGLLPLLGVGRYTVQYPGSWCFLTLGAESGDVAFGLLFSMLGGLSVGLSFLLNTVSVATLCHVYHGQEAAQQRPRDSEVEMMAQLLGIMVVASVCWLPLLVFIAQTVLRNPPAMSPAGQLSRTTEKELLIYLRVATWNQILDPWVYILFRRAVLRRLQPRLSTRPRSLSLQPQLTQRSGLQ
# From the text: (b) a blood platelet aggregation test based on that described by Born (Nature, 1962, 194, 927-929) and involving:
# (i) aggregating human, citrated, platelet-rich plasma by addition of the TXA2 mimetic agent U46619 so that a dose-response curve is generated;
# (iii) calculating a KB value indicating potency of TXA2 antagonism for the test compound, averaged over several concentrations, from the calculated 50% response value for U46619 aggregation in the presence and absence of test compound; and […]
SMILES,pA2 [1],Kb [2] [nM]
N#Cc1ccc([C@H]2OC[C@@H](C/C=C\CCC(=O)O)[C@@H](c3ccccc3O)O2)cc1 (relative stereo) [compound (iii)],7.45,5.49
"O=C(O)CCC/C=C\C[C@@H]1CO[C@H](c2ccccc2Cl)O[C@@H]1c1ccccc1 (relative stereo) [(iv), 5(Z)-7-([2,4,5-cis]-2-o-chlorophenyl-4-phenyl-1,3-dioxan-5-yl)heptenoic acid, reference compound]",6.22,
"N#Cc1ccccc1[C@H]1OC[C@@H](C/C=C\CCC(=O)O)[C@@H](c2ccccc2O)O1 (relative stereo) [compound (ii), 4(Z)-6-([2,4,5-cis]-2-o-cyanophenyl-4-o-hydroxyphenyl-1,3-dioxan-5-yl)hexenoic acid]",8.09,0.834
"N#Cc1ccc([C@H]2OC[C@@H](C/C=C\CCCC(=O)O)[C@@H](c3ccccc3)O2)cc1 (relative stereo) [(v), 5(Z)-7([2,4,5-cis]-2-p-cyanophenyl-4-phenyl-1,3-dioxan-5-yl)heptenoic acid, reference compound]",5.65,
"O=C(O)CC/C=C\C[C@@H]1CO[C@H](c2ccccc2Cl)O[C@@H]1c1ccccc1O (relative stereo) [compound (i), 4(Z)-6-([2,4,5-cis]-2-o-chlorophenyl-4-o-hydroxyphenyl-1,3-dioxan-5-yl)hexenoic acid]",8.02,
